Experimental data taken from ChEMBL document CHEMBL5104092, “An insight into the recent development of the clinical candidates for the treatment of malaria and their target proteins” (Eur J Med Chem, 2021).
Converted amounts (≈) assume the structure as drawn. One block for each molecule: values may come before it.

Tests used:
[1] = tested on: Plasmodium falciparum; assay: Antimalarial activity against multidrug resistant Plasmodium falciparum Dd2 incubated for 72 hrs by malaria SYBR green I nucleic acid staining dye based fluorescence assay; type: functional, organism-based; conditions: Dd2, 72 h
[2] = Dissociation constant, pKa of compound; type: physicochemical
[3] = tested on: Plasmodium falciparum; assay: Antimalarial activity against Plasmodium falciparum 3D7; type: functional, organism-based
[4] = tested on: Plasmodium yoelii nigeriensis; assay: In vivo antimalarial activity against Plasmodium yoelii nigeriensis infected in Swiss mouse; type: functional
[5] = Inhibition of Plasmodium falciparum DHODH expressed in Escherichia coli BL21 (DE3) cells by DCIP staining method
[6] = tested on: Plasmodium falciparum; assay: Antimalarial activity against chloroquine resistant Plasmodium falciparum K1 incubated for 72 hrs by malaria SYBR green I nucleic acid staining dye based fluorescence assay; type: functional, organism-based; conditions: K1, 72 h
[7] = tested on: Plasmodium falciparum; assay: Antimalarial activity against chloroquine sensitive Plasmodium falciparum 3D7 incubated for 72 hrs by malaria SYBR green I nucleic acid staining dye based fluorescence assay; type: functional, organism-based; conditions: 3D7, 72 h
[8] = tested on: Plasmodium yoelii; assay: In vivo antimalarial activity against chloroquine resistant Plasmodium yoelii N-67 infected in Swiss albino mouse assessed as suppression of parasitemia at 25 mg/kg measured upto 28 days relative to control; type: functional; conditions: time <= 28 day
[9] = tested on: Plasmodium yoelii; assay: In vivo antimalarial activity against chloroquine resistant Plasmodium yoelii N-67 infected in Swiss albino mouse assessed as suppression of parasitemia at 10 mg/kg relative to control; type: functional
[10] = Inhibition of Plasmodium flaciparum 3D7_2 membrane recombinant ATP4 expressed in Escherichia coli BL21 (DE3) cells; design: species or system Plasmodium falciparum
[11] = Inhibition of Plasmodium flaciparum B7 membrane recombinant ATP4 expressed in Escherichia coli BL21 (DE3) cells; design: species or system Plasmodium falciparum
[12] = Selectivity ratio of IC50 for Plasmodium falciparum B7 membrane recombinant Na+ dependent ATPase activity to IC50 for Plasmodium falciparum 3D7_2 membrane recombinant Na+ dependent ATPase activity
[13] = tested on: Plasmodium falciparum; assay: Antimalarial activity against Plasmodium falciparum NF54; type: functional, organism-based
[14] = tested on: Plasmodium falciparum; assay: Antimalarial activity against Plasmodium falciparum K1; type: functional, organism-based
[15] = tested on: Plasmodium falciparum; assay: Antimalarial activity against chloroquine-sensitive Plasmodium falciparum D6 assessed as parasitic LDH activity incubated for 72 hrs by malstat reagent method; type: functional, organism-based; conditions: D6, 72 h
[16] = tested on: Plasmodium falciparum; assay: Antimalarial activity against chloroquine-sensitive Plasmodium falciparum W2 assessed as parasitic LDH activity incubated for 72 hrs by malstat reagent method; type: functional, organism-based; conditions: W2, 72 h
[17] = Cytotoxicity against African green monkey Vero cells; type: toxicity, cell-based, Chlorocebus sabaeus
[18] = tested on: Plasmodium falciparum; assay: Antimalarial activity against multidrug resistant Plasmodium falciparum W2 after 48 hrs in presence of [3H] hypoxanthine; type: functional, organism-based
[19] = tested on: Plasmodium falciparum; assay: Antimalarial activity against multidrug resistant Plasmodium falciparum TM90-C2B after 48 hrs in presence of [3H] hypoxanthine; type: functional, organism-based
[20] = tested on: Plasmodium falciparum; assay: Antimalarial activity against multidrug resistant Plasmodium falciparum MRA1239 after 48 hrs in presence of [3H] hypoxanthine; type: functional, organism-based
[21] = tested on: Plasmodium falciparum; assay: Antimalarial activity against multidrug resistant Plasmodium falciparum MRA1240 after 48 hrs in presence of [3H] hypoxanthine; type: functional, organism-based
[22] = tested on: Plasmodium berghei; assay: In vivo antimalarial activity against Plasmodium berghei infected in mouse administered po for 4 days by Peters 4 day test; type: functional; conditions: 96 h
[23] = Cmax in mouse blood at 16 mg/kg, po measured upto 28 days by LC-MS analysis; type: ADME, organism-based; design: time < 28 day, dose 16 mg/kg, route po
[24] = Elimination half life in mouse blood at 16 mg/kg, po measured upto 28 days by LC-MS analysis; type: ADME, organism-based; conditions: time < 28 day, read-out: LambdaZ (converted)
[25] = tested on: Plasmodium falciparum; assay: Antiplasmodial activity against chloroquine sensitive Plasmodium falciparum NF54 by parasite lactate dehydrogenase assay; type: functional, organism-based
[26] = Inhibition of Plasmodium falciparum recombinant DHODH incubated for 5 mins by microplate reader method
[27] = tested on: Plasmodium falciparum; assay: Antiplasmodial activity against chloroquine resistant Plasmodium falciparum K1 incubated for 72 hrs by malaria SYBR green I nucleic acid staining dye based fluorescence assay; type: functional, organism-based; conditions: K1, 72 h
[28] = tested on: Plasmodium falciparum; assay: Antiplasmodial activity against chloroquine sensitive Plasmodium falciparum 3D7 incubated for 72 hrs by malaria SYBR green I nucleic acid staining dye based fluorescence assay; type: functional, organism-based; conditions: 3D7, 72 h
[29] = tested on: Plasmodium yoelii; assay: In vivo antimalarial activity against Plasmodium yoelii N-67 infected in Swiss mouse assessed as reduction in parasitemia level at 12.5 mg/kg, po measured on day 4 relative to control; type: functional; design: scale not given: the % may be the effect or the level left; conditions: time 4 day
[30] = Toxicity in Swiss mouse infected with Plasmodium yoelii N-67 assessed as survival rate at 12.5 mg/kg, po measured on day 4 relative to control; type: organism-based; conditions: in vivo, time 4 day, read-out: Activity
[31] = Inhibition of Plasmodium vivax PI4K
[32] = tested on: Plasmodium berghei; assay: In vivo antimalarial activity against Plasmodium berghei infected in SCID mouse; type: functional
[33] = target: Voltage-gated inwardly rectifying potassium channel KCNH2 (Homo sapiens, UniProt Q12809); assay: Inhibition of human ERG; type: toxicity
Sequence of Voltage-gated inwardly rectifying potassium channel KCNH2 (Q12809 whole entry): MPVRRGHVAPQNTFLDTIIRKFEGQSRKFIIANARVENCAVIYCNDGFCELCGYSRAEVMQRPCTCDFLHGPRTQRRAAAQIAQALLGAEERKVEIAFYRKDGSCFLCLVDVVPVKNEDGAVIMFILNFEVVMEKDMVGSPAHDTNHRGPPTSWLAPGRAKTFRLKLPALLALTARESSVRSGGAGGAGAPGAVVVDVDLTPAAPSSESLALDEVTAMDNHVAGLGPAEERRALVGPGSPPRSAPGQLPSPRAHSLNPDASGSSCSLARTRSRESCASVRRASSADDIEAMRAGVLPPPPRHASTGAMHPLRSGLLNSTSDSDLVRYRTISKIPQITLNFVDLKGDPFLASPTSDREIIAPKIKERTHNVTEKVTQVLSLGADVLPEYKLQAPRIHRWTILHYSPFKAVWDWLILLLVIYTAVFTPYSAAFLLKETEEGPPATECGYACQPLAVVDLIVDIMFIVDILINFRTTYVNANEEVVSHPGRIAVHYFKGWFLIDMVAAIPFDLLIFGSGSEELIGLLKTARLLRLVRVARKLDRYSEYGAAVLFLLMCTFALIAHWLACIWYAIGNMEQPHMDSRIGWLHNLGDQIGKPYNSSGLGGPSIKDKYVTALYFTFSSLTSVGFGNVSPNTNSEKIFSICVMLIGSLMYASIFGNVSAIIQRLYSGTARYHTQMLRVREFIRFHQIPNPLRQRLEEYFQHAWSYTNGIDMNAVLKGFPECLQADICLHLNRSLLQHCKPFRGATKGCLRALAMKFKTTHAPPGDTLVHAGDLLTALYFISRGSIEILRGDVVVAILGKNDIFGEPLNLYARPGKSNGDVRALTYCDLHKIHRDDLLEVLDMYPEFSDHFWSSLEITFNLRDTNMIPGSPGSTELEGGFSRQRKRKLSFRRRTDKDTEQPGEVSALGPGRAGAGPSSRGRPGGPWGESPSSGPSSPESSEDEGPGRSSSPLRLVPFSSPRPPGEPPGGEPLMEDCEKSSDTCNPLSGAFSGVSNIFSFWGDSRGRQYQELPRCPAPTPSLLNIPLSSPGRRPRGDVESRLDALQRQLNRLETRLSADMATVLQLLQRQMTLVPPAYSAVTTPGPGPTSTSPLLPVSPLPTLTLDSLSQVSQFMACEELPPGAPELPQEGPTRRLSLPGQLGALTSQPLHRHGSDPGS

[34] = tested on: Plasmodium falciparum; assay: Antimalarial activity against Plasmodium falciparum Dd2; type: functional, organism-based
[35] = tested on: HepG2; assay: Cytotoxicity against human HepG2 cells; type: functional, cell-based
[36] = target: CYP450 (Homo sapiens, UniProt P04798+P05177+P05181+P08684+P10632+P10635+P11509+P11712+P13584+P20813+P20815+P20853+P24462+P24903+P33260+P33261+P51589+P78329+P98187+Q02928+Q08477+Q16678+Q16696+Q5TCH4+Q6VVX0+Q7Z449+Q8TAV3+Q96SQ9+Q9HB55); assay: Inhibition of CYP450 (unknown origin); type: ADME, protein assay
[37] = tested on: Plasmodium berghei; assay: In vivo antimalarial activity against Plasmodium berghei infected in mouse model; type: functional
[38] = tested on: Plasmodium falciparum; assay: Antimalarial activity against chloroquine sensitive Plasmodium falciparum NF54 incubated for 48 hrs by SYBR green I fluorescence based assay; type: functional, organism-based; conditions: NF54, 48 h
[39] = tested on: Plasmodium falciparum; assay: Antimalarial activity against chloroquine resistant Plasmodium falciparum K1 incubated for 48 hrs by SYBR green I fluorescence based assay; type: functional, organism-based; conditions: K1, 48 h
[40] = tested on: Plasmodium falciparum; assay: Antimalarial activity against chloroquine resistant Plasmodium falciparum W2 incubated for 48 hrs by SYBR green I fluorescence based assay; type: functional, organism-based; conditions: W2, 48 h
[41] = tested on: Plasmodium falciparum; assay: Antimalarial activity against chloroquine resistant Plasmodium falciparum Dd2 incubated for 48 hrs by SYBR green I fluorescence based assay; type: functional, organism-based; conditions: Dd2, 48 h
[42] = tested on: Plasmodium falciparum; assay: In vivo antimalarial activity against Plasmodium falciparum infected in SCID mouse; type: functional
[43] = tested on: Plasmodium falciparum; assay: Antimalarial activity against chloroquine-sensitive Plasmodium falciparum 3D7 by Giemsa staining method; type: functional, organism-based
[44] = tested on: Plasmodium falciparum; assay: Antimalarial activity against Plasmodium falciparum assessed as increase in parasite swelling diameter at ring stage after 2 hrs by time-lapse live cell imaging (reference value: […]); type: functional
[45] = Drug elimination in human urine assessed as unchanged fraction; type: ADME; conditions: read-out: Drug excretion

Structure (SMILES): CCN(CC)CCCC(C)Nc1ccnc2cc(Cl)ccc12 (configuration not stated) [CHLOROQUINE]
- EC50 [1]: 165 nM

Structure (SMILES): C=C(c1ccc(OC(C)(C)COC(=O)CCC(=O)O)cc1)C1COC2(OO1)C1CC3CC(C1)CC2C3 (configuration not stated)
- pKa [2]: 4
- IC50 [3]: 49 nM
- ED90 [4]: 18.3 mg/kg

- IC50 [5]: 2900 nM
Structure (SMILES): COC(=O)[C@]1(C)C[C@H](c2ccccc2)N2[C@@H](C)CC(=O)N21

Structure (SMILES): CC(C)C[C@@H](CN1CCN(C)CC1)Nc1ccnc2cc(Cl)ccc12
- IC50 [6]: 13.6 nM
- IC50 [7]: 8.8 nM
- Activity [8]: 100%

Structure (SMILES): CC(C)C[C@@H](CN1CCN(C)CC1)Nc1ccnc2cc(Cl)ccc12.Cl
- Activity [9]: 100%

Structure (SMILES): CCC(CC)Nc1nc(C)c(C#N)c2ccccc12
- IC50 [10]: 70 nM
- IC50 [11]: 429 nM
- Ratio IC50 [12]: 6

- EC50 [13]: 2 nM
- EC50 [14]: 5 nM
Structure (SMILES): COC(=O)N1CCN(C(=N)c2cccc(NC(=O)Nc3ccc(S(=O)(=O)NCc4ccc(S(N)(=O)=O)cc4)cc3)c2)CC1

- IC50 [15]: 1180 nM
- IC50 [16]: 1320 nM
Structure (SMILES): c1cc(N2CCOCC2)nc(NCCNc2nc(N3CCOCC3)nc(N3CCOCC3)n2)n1
- IC50 [17]: > 10100 nM

Structure (SMILES): CN(C(=S)NN=C(c1ccccn1)c1ccccn1)c1ccccc1
- EC50 [18]: 6.2 nM
- EC50 [19]: 13 nM
- EC50 [20]: 6.9 nM
- EC50 [21]: 9.1 nM
- ED50 [22]: 1.2 mg/kg/day
- Cmax [23]: 1880 ng/mL
- half-life [24]: 48.7 h

- IC50 [25]: 26000 nM
Structure (SMILES): CCOC(=O)C(=CNc1cccc(N(C)C)c1)C(=O)OCC

Structure (SMILES): c1c2c(cc3c1OCO3)-c1cc3ccc4c(c3c[n+]1CC2)OCO4 [COPTISINE]
- IC50 [26]: 1830 nM

Structure (SMILES): CCC1CCN(CC(CC(C)C)Nc2ccnc3cc(Cl)ccc23)CC1 (configuration not stated)
- IC50 [27]: 97.8 nM
- IC50 [28]: 57 nM
- Activity [29]: 100%
- survival at 96 h [30]: 100%

Structure (SMILES): Nc1ncc(-c2ccc(C(=O)N3CCNCC3)cc2)nc1-c1ccc(C(F)(F)F)cc1
- pKa [2]: 8.1
- IC50 [13]: 5.4 nM
- IC50 [14]: 4.7 nM
- IC50 [31]: 23 nM
- ED90 [32]: 0.25 mg/kg

- pKa [2]: 5
- EC50 [34]: 3 nM
- EC50 [3]: 9 nM
Structure (SMILES): COc1ccc(NC(=O)N2CCCCN3[C@H](CN(C)C)[C@H](c4ccc(C#Cc5ccccc5)cc4)[C@@H]3C2)cc1
- IC50 [33]: 2100 nM
- CC50 [35]: 9000 nM

Structure (SMILES): CC1(C)c2nc(-c3ccc(F)cc3)c(Nc3ccc(F)cc3)n2CCN1C(=O)CN [GANAPLACIDE]
- pKa [2]: 7.3
- IC50 [36]: > 6000 nM
- IC50 [33]: 13400 nM
- ED99 [37]: 2.2 mg/kg

Structure (SMILES): C[C@H]1[C@H](Nc2ccc(F)cc2)O[C@@H]2O[C@]3(C)CC[C@H]4[C@H](C)CC[C@@H]1[C@@]24OO3
- IC50 [38]: 1.3 nM
- IC50 [39]: 0.6 nM
- IC50 [40]: 3 nM
- IC50 [41]: 11.1 nM

Structure (SMILES): FC1CCN(CCOc2ccc(C3CCC4(CC3)OOC3(OO4)C4CC5CC(C4)CC3C5)cc2)CC1 (configuration not stated)
- pKa [2]: 8.4
- IC50 [13]: 5.2 nM
- IC50 [14]: 4.2 nM
- ED90 [42]: 11 mg/kg
- IC50 [36]: > 20000 nM

- IC50 [43]: 11.3 µg/mL (≈ 22 µM)
Structure (SMILES): O=[N+]([O-])c1cccc(-c2csc(Nc3nc(NNc4ccccc4)nc(NNc4ccccc4)n3)n2)c1

Structure (SMILES): CC(C)c1nc2ccccc2n1CC(=O)Nc1c(-c2ccc(Cl)cc2F)c(C(F)(F)F)nn1C
- Activity [44]: 4.6 µm

- dose excreted [45]: < 1%
Structure (SMILES): COc1cc(NCCCC(C)N)c2ncccc2c1 (configuration not stated) [QUINOCIDE]

- pKa [2]: 12.6
Structure (SMILES): O=C(c1ccc(OC[C@H](O)Cn2ncnn2)cc1)N1CC[C@H](c2ccc(F)cc2)C1
